Values belong to the compound of their own block, whether it stands above or below them.
Experiments:
PDE4A1A = biological target: T1, PDE4A1A (Homo sapiens, UniProt P27815); assay: Selectivity for PDE4 enzyme isotypes, same detection method as PDE4B; assay type: biochemical
T1 construct: purchased BPS bioscience
Description: (§1) 2.1 Compound preparation and treatment: all compounds were prepared into 50 mM stock solutions using dimethyl sulfoxide.
(§2) 2.2 Preparation of working stock solution: a) the reference rolipram was serially diluted 3 times with dimethyl sulfoxide starting from 2 mmol, to a total of 10 concentrations. b) 2 mmol of the compound of the present invention was serially diluted three times with dimethyl sulfoxide (DMSO) to a total of 10 concentrations. c) A 200X positive control (2 mM rolipram) and a 200X vector control (100% dimethyl sulfoxide) were prepared. d) The compound plate was centrifuged at 1000 rpm for 1 minute.
(§3) • a) An Echo 550 was used to transfer 20 nL of compound dilution to each well of the detection plate. • b) The test plate was sealed and centrifuged at 1000 rpm for 1 minute. • c) 2X PDE4B2 was prepared in frozen PDE detection buffer. • d) 2 µL of 2X PDE4B2 was added to each well of the detection plate (prepared in step b). • e) The test plate was sealed and incubated for 10 minutes under RT conditions. • f) 2X Cyclic-3',5'-AMP was prepared in PDE detection buffer. • g) 2 µl of 2X Cyclic-3',5'-AMP (prepared in step f) was added to each well of the detection plate (prepared in step e) to initiate the reaction. Incubation was performed at room temperature for 60 minutes. • h) 4 µL of AMP-Glo reagent I was added. • i) 8 µL of AMP detection solution was added. Incubation was performed at room temperature for 60 minutes. • k) The RLU signal was read on the Envision 2105 reader.
(§4) Same detection method as PDE4B

PDE4C1 = biological target: T2, PDE4C1 (Homo sapiens, UniProt Q08493); assay: as above; assay type: biochemical
T2 construct: purchased BPS bioscience
T2 sequence (Q08493 whole entry): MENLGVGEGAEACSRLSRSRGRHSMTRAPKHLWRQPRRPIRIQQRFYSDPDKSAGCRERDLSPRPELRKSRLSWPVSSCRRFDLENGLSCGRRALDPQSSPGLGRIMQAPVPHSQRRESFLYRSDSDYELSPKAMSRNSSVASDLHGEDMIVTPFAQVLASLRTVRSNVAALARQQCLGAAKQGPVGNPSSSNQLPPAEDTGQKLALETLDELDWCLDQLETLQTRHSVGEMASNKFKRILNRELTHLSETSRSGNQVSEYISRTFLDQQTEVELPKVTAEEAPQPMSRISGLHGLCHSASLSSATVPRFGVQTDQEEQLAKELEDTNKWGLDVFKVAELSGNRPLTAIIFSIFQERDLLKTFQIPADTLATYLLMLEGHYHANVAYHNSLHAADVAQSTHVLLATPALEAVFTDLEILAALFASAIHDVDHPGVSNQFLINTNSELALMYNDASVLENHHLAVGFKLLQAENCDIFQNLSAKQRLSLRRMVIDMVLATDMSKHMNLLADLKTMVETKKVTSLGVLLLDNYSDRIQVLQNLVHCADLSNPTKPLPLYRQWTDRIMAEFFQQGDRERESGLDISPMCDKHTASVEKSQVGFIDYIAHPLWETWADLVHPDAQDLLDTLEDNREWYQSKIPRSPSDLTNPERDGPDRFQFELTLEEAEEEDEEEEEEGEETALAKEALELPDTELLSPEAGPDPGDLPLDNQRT
Description: as §1, §2, §3, §4

PDE4D2 = biological target: T3, PDE4D2 (Homo sapiens, UniProt Q08499); assay: as above; assay type: biochemical
T3 construct: purchased BPS bioscience
T3 sequence (Q08499 303-809): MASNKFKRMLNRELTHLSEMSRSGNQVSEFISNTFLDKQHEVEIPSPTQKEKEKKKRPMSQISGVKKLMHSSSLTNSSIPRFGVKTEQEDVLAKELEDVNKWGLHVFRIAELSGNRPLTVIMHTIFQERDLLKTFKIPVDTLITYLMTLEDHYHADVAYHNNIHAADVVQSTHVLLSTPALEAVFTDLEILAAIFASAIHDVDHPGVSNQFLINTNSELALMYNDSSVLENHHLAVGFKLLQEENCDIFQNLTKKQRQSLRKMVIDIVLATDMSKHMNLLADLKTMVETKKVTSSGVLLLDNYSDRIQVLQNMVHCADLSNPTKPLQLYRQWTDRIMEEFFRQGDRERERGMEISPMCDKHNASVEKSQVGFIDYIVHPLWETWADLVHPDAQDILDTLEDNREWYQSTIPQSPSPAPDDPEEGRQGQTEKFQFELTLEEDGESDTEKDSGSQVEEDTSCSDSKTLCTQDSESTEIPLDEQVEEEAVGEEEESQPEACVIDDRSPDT
Description: as §1, §2, §3, §4

PDE4D3 = biological target: T4, PDE4D3 (Homo sapiens, UniProt Q08499); assay: as above; assay type: biochemical
T4 construct: purchased BPS bioscience
T4 sequence (Q08499 1-673 isoform Q08499-2): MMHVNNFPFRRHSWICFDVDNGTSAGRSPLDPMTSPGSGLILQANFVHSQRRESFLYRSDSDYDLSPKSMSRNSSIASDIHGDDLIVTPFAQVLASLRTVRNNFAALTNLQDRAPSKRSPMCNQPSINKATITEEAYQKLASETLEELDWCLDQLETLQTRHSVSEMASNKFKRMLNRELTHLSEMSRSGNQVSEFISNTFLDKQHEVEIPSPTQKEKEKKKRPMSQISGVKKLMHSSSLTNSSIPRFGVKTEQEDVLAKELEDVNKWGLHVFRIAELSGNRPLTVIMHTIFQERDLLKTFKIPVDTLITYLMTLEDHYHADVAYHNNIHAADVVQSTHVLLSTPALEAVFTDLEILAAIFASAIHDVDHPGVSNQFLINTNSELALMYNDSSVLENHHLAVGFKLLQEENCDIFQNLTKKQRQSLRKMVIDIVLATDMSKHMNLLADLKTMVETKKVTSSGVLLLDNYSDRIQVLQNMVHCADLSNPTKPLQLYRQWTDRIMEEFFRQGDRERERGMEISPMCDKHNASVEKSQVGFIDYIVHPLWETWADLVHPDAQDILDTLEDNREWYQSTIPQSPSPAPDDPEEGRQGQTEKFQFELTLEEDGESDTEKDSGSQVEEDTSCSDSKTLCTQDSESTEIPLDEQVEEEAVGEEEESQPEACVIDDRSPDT
Description: as §1, §2, §3, §4

PDE4B2A = biological target: T5, PDE4B2A (Homo sapiens, UniProt Q07343); assay: as above; assay type: biochemical
T5 construct: purchased BPS bioscience
T5 sequence (Q07343 1-564 isoform Q07343-2): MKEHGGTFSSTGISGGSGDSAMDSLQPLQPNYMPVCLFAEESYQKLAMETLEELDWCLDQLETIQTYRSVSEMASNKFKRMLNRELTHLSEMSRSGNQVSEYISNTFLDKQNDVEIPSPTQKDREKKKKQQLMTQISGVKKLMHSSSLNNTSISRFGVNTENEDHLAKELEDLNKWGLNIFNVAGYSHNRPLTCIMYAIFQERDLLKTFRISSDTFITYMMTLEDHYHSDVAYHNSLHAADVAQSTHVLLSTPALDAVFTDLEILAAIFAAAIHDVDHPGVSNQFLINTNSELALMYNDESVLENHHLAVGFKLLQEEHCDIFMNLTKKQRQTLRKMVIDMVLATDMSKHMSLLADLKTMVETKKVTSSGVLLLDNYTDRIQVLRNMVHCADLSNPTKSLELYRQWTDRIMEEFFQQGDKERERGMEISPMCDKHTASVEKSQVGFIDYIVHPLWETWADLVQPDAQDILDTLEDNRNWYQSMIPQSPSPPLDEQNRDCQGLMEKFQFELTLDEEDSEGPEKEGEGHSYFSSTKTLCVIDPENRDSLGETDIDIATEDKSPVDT
Description: as §1, §2, §3, §4

hERG potassium channel = biological target: T6, hERG potassium channel (Homo sapiens, UniProt Q12809); assay: hERG whole-cell patch-clamp test in HEK-293 cells; assay type: cell-based; conditions: HEK-293 cells stably expressing hERG, whole-cell patch clamp, 0.03-30 µM, read-out: h ERG IC50
T6 construct: host or cells: HEK-293
T6 sequence (Q12809 whole entry): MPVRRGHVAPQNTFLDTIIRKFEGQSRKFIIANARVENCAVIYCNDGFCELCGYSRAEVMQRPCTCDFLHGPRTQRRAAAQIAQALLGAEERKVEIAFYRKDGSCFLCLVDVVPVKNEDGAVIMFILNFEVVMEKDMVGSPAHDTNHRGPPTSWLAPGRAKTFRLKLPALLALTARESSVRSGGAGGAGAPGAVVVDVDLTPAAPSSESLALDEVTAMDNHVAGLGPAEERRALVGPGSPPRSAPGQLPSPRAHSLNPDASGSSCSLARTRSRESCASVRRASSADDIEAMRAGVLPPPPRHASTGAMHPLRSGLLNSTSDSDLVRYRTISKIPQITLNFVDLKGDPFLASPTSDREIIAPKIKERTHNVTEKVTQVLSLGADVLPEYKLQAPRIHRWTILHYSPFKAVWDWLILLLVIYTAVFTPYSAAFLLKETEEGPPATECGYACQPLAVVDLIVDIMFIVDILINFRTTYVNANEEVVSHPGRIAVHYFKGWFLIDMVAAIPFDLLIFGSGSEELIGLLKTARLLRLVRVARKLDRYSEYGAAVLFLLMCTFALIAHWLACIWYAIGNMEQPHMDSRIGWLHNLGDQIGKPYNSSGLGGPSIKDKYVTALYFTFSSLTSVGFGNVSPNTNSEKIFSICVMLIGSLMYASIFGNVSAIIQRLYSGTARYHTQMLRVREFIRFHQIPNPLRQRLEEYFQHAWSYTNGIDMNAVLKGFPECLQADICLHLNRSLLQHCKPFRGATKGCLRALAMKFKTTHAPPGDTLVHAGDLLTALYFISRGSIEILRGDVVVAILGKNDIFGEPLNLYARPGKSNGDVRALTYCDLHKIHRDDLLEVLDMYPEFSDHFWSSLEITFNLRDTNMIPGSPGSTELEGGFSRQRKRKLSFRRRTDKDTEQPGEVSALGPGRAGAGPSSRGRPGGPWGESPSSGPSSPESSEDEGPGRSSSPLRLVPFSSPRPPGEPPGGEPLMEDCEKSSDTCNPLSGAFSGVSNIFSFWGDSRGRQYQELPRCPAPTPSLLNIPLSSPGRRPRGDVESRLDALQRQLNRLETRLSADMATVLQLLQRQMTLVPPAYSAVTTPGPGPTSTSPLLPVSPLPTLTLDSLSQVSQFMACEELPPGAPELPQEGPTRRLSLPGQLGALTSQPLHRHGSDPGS
Description: HEK-293 cell line stably expressing hERG potassium channels (purchased from Creacell, catalog number: A-0320) was used. HEK293 cell lines were cultured in DMEM medium containing 10% fetal bovine serum and 0.8 mg/mL G418 at a temperature of 37°C and a carbon dioxide concentration of 5%. For patch-clamp assays, cells were separated using TrypLE™ Express before the assay. 4 × 10^3 cells were seeded onto coverslips and cultured in 24-well plates (final volume: 500 µL). The assays were performed 18 hours later.
Whole-cell patch-clamp test: after whole-cell sealing is achieved, the cell membrane voltage is clamped to -80mV. […] Data was collected every 10 seconds to observe the effect of the drug on hERG tail current. A -50 mV stimulus of 0.5 s was used as the leakage current detection. Experimental data were collected by the EPC-10 amplifier and stored in the software. Once the hERG current recorded in whole cells stabilized, drug administration began. Each drug concentration was administered for 5 minutes (or the current stabilized) before the next concentration was measured.

[1] = system: bleomycin-induced pulmonary fibrosis in rats; assay: Bleomycin-induced pulmonary fibrosis in rats; conditions: mean ± SD, n=10; for Percentage of lung collagen fibers (%): Masson's staining; for IL-6 / TGF-β: bronchoalveolar lavage fluid, ELISA
Description: 50 SD rats were randomly divided into 5 groups according to their body weight, with 10 rats in each group and half male and half female.
After anesthetizing rats with chloral hydrate, bleomycin solution was injected into the trachea through the vocal cords at a dose of 5 mg/kg and a volume of 1 ml/kg; rats in the blank control group were injected with an equal volume of physiological saline into the trachea. […] Blood and lungs were collected from each group of animals on day 22. After euthanizing the rats, the trachea was exposed, and an intravenous cannula was inserted into the rat's bronchus. The trachea was lavaged twice with PBS (5 ml), and the lavage fluid was collected. Then, centrifugation was performed at 1500 r/min for 10 min. The supernatant was collected.

[2] = system: mouse eosinophilic asthma model; assay: Eosinophilic asthma induced by house dust mite extract in mice; conditions: eosinophilic asthmatic mice, n=10; for IL-4 / IgE: bronchoalveolar lavage fluid, Mean ± SD; for Eosinophils (%): lung lavage fluid; for Eosinophils (%) / Number of sneezes (20 minutes): mean ± SD; for Number of sneezes (20 minutes): within 20 minutes after the last administration
Description: The number of eosinophils in the lung lavage fluid of mice and the number of sneezes in mice within 20 minutes after the last administration were counted.

[3] = system: rat model of chronic obstructive pulmonary disease (COPD); assay: Chronic obstructive pulmonary disease in rats (fumigation and intratracheal LPS); conditions: n=8; for 14-day FEV 1/FVC (%): day 14 of treatment; for 14-day FEV 1/FVC (%) / 28-day FEV 1/FVC (%): Mean ± SD; for 28-day FEV 1/FVC (%): last administration (28 days); for Pathological score: lung tissue, HE staining; for Pathological score / IL-1β / TNF-α: mean ± SD; for IL-1β / TNF-α: serum, ELISA
Description: Subsequently, the SD rats were randomly divided into 5 groups according to their body weight, with 8 rats in each group and half male and half female.
Except for the blank control group, SD rats were used to establish a rat model of chronic obstructive pulmonary disease (COPD) by fumigation and intratracheal instillation of LPS. On days 1, 14, 28 and 42 of modeling, the rats were anesthetized with chloral hydrate and then 125 µL of LPS (2 mg/mL) solution was instilled into the trachea. For the rest of the time, the animals were placed in a self-made fumigation box and each group of rats was continuously fumigated with 10 lit cigarettes for 1.5 hours (once in the morning and once in the afternoon) for 50 consecutive days. After the model was established, the rats in each group were given the drug twice a day for 28 consecutive days.
The rat lung function test instrument was used to measure FVC and FEV1 on day 14 of treatment and at the last administration, and the FEV1/FVC ratio was calculated.
Blood samples were collected after the last administration of the drug to measure inflammatory markers. Levels of IL-1β and TNF-α in serum were measured according to the ELISA instructions.
After the last treatment, all three lobes of the right lung of the rats were removed, fixed and dehydrated in 10% formaldehyde, embedded in paraffin, sectioned, and stained with hematoxylin and eosin (HE). The morphological changes of the lung tissue of the rats in each group were observed.

[4] = 5 mg/kg intragastric twice daily for 14 days
[5] = 10 mg/kg intragastric twice daily for 14 days
[6] = 20 mg/kg intragastric twice daily for 14 days
[7] = 5 mg/kg twice daily for 14 days
[8] = 10 mg/kg twice daily for 14 days
[9] = 20 mg/kg twice daily for 14 days
[10] = 5 mg/kg twice a day for 28 days
[11] = 10 mg/kg twice a day for 28 days
[12] = 20 mg/kg twice a day for 28 days

T1 sequence (P27815 1-647 isoform P27815-4): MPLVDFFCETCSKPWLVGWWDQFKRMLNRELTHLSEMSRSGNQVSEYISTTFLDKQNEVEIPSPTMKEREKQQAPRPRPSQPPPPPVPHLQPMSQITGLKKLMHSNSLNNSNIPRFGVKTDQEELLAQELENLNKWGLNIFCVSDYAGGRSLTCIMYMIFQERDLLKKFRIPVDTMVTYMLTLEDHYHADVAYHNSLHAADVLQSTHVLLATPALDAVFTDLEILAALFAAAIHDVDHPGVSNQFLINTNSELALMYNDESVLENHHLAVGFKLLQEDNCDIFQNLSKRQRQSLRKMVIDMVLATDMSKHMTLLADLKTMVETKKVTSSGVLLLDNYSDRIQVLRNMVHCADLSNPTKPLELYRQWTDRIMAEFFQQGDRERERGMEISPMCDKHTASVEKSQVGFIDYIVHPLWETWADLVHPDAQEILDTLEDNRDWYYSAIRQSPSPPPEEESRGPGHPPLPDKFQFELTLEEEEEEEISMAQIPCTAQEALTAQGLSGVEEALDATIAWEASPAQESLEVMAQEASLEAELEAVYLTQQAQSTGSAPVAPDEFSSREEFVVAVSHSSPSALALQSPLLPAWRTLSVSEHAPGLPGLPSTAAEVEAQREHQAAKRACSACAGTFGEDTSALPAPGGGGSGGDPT

IC50 (PDE4A1A): 112 nM
Selectivity over PDE4B (PDE4A1A; PDE4A1A vs PDE4B2A): 4.5
IC50 (PDE4C1): 2190 nM
Selectivity over PDE4B (PDE4C1; PDE4C1 vs PDE4B2A): 89
IC50 (PDE4D2): 37.1 nM
Selectivity over PDE4B (PDE4D2; PDE4D2 vs PDE4B2A): 1.5
IC50 (PDE4D3): 65.8 nM
Selectivity over PDE4B (PDE4D3; PDE4D3 vs PDE4B2A): 2.7
IC50 (PDE4B2A): 24.5 nM
Selectivity over PDE4B (PDE4B2A; PDE4B2A vs PDE4B2A): 1
Compound: [O-][S+]1CCc2nc(N3CCC(c4ncc(Cl)cn4)CC3)nc(NC3(CO)CCC3)c21 (stereo not drawn) [WO2013026797 (Compound II)]
IC50 at 5 min (hERG potassium channel; human, HEK-293 cells stably expressing hERG potassium channels): > 3.28 µM

Compound: O=C(O)Cc1ccc(Nc2nc(N3CCC(c4ncc(Cl)cn4)CC3)nc3c2S(=O)(=O)CCC3)cc1F [Example 11, 2-(4-((2-(4-(5-chloropyrimidin-2-yl)piperidin-1-yl)-5,5-dioxo-7,8-dihydro-6H -thiapyrano[3,2-d]pyrimidin-4-yl)amino)-2-fluorophenyl)acetic acid]
Percentage of lung collagen fibers (%) [1, 4]: 16.1±4.6 %
Percentage of lung collagen fibers (%) [1, 5]: 9.7±2.2 %
Percentage of lung collagen fibers (%) [1, 6]: 8.5±2.5 %
IL-6 [1, 4]: 34.8 ± 3.7 pg/mL
TGF-β [1, 4]: 79.0 ± 6.4 pg/mL
IL-6 [1, 5]: 32.5 ± 6.1 pg/mL
TGF-β [1, 5]: 69.1 ± 6.3 pg/mL
IL-6 [1, 6]: 28.3 ± 3.9 pg/mL
TGF-β [1, 6]: 56.3 ± 5.2 pg/mL
IC50 (hERG potassium channel): > 30 µM
IL-4 [2, 7]: 70.92 ± 10.87 pg/mL
IgE [2, 7]: 266.55 ± 52.03 pg/mL
IL-4 [2, 8]: 59.38 ± 9.90 pg/mL
IgE [2, 8]: 219.05 ± 38.74 pg/mL
IL-4 [2, 9]: 51.13 ± 16.07 pg/mL
IgE [2, 9]: 189.36 ± 56.69 pg/mL
Eosinophils (%) [2, 7]: 21.97±2.58 %
Eosinophils (%) [2, 8]: 17.93±3.30 %
Eosinophils (%) [2, 9]: 16.04±2.97 %
Number of sneezes (20 minutes) [2, 7]: 17.9±3.4
Number of sneezes (20 minutes) [2, 8]: 16.3±3.7
Number of sneezes (20 minutes) [2, 9]: 13.8±1.9
14-day FEV 1/FVC (%) ([3]; 5 mg/kg twice a day): 66.65±5.48 %
28-day FEV 1/FVC (%) ([3]; 5 mg/kg twice a day): 69.99±2.65 %
14-day FEV 1/FVC (%) ([3]; 10 mg/kg twice a day): 72.14±6.56 %
28-day FEV 1/FVC (%) ([3]; 10 mg/kg twice a day): 75.30±1.84 %
14-day FEV 1/FVC (%) ([3]; 20 mg/kg twice a day): 76.78±5.41 %
28-day FEV 1/FVC (%) ([3]; 20 mg/kg twice a day): 77.10±1.81 %
Pathological score [3, 10]: 3.83 ± 0.75
Pathological score [3, 11]: 2.00±0.63
Pathological score [3, 12]: 1.83±0.41
IL-1β [3, 10]: 71.13 ± 16.14 pg/mL
TNF-α [3, 10]: 118.36 ± 27.30 pg/mL
IL-1β [3, 11]: 51.92 ± 16.06 pg/mL
TNF-α [3, 11]: 90.15 ± 15.79 pg/mL
IL-1β [3, 12]: 50.75 ± 15.07 pg/mL
TNF-α [3, 12]: 73.23 ± 11.78 pg/mL
